Measured values taken from patent EP0973746B1, “SUBSTITUTED 3-CYANO QUINOLINES” (Wyeth Holdings Corporation, priority 1997, dated 1998).
≈ marks a conversion by molar mass, not a printed value. Where “and” joins values, the source holds several entries; their conditions need not be identical. Equal values may be shown once. Read-outs that look alike come from different tables or passages of the source.

How the values were obtained:
[1] = tested on: SKBR3; assay: Inhibition of cancer cell growth as measured by cell number, SKBR3; format: cell-based, human; details: Table 8; for IC50: Homo sapiens;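 on all read-outs here: SK-BR-3 cells were selected as a line overexpressing HER2/neu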
Description: (§1) The cell lines were chosen since they overexpressed epidermal growth factor receptor (EGFR) (i.e. A431) or HER2/neu (SKBR3), or had little to no expression of the these receptors (SW620, LOX, MCF7).

[2] = tested on: human epidermoid tumors (A431); assay: In vivo inhibition of the growth of human epidermoid tumors (A431); details: Table 11; for S/T = No. Survivors/No. Treated: Day +28 post tumor staging
Description: Representative compounds of this invention (listed below) were evaluated in an in vivo standard pharmacological test procedure which measured its ability to inhibit the growth of human epidermoid tumors. […] BALB/c nu/nu female mice (Charles River, Wilmington, MA) were used in this in vivo standard pharmacological test procedure. A unit of 5 X 10^6 cells were injected SC into mice. When tumors attained a mass of between 100 and 150 mg, the mice were randomized into treatment groups (day zero). […] Control animals received no drug. Tumor mass was determined every 7 days [(length X width^2)/2] for 28 days post staging. Relative tumor growth (Mean tumor mass on days 7, 14, 21, and 28 divided by the mean tumor mass on day zero) is determined for each treatment group.

[3] = target: recombinant human MEK 1 (MAPKK) and recombinant human ERK2 (MAPK); assay: Mitogen Activated Protein Kinase (MAPK) assay, two component coupled MEK 1 / ERK2; format: biochemical; details: separate entries for the same compound = evaluated more than one time;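 further: MEK 1-activated ERK2 phosphorylates MBP or Myc peptide with 33P-ATP, filter capture and scintillation counting, inhibitor preincubated with ERK2 30 min at 0 °C, inhibition relative to uninhibited control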
[4] = target: T1, His-tagged cytoplasmic domain of EGFR (Homo sapiens, UniProt P00533); assay: Inhibition of Epidermal Growth Factor Receptor Kinase (EGF-R) using recombinant enzyme; format: biochemical; details: recombinant enzyme; RR-SRC peptide; average of the number of tests; read-out: IC50;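 further: radiometric kinase assay measuring radiolabeled phosphate transfer from ATP onto the peptide tyrosine by scintillation counting, control is reaction without compound, background subtracted, IC50 from dose-response curve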
T1 construct: containing the EGFR cDNA encoding amino acids 645 - 1186 preceded by Met-Ala-(His)6; made in house; host or cells: Sf9 cells, recombinant baculovirus vHcEGFR52
T1 sequence (P00533 669-1210): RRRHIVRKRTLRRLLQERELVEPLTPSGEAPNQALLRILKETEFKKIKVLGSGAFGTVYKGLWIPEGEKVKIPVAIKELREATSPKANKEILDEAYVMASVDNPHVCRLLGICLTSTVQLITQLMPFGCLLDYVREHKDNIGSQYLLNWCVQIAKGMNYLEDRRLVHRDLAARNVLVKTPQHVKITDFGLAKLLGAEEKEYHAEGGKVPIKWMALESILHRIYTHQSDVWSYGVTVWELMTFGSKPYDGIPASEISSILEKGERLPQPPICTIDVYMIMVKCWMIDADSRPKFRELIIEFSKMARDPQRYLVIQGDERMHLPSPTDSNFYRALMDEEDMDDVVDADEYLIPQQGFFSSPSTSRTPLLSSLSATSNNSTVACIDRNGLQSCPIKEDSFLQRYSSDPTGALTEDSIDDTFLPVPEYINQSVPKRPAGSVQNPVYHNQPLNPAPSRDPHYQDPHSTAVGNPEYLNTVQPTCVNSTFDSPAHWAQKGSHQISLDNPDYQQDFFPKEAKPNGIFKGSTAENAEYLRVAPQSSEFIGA

[5] = tested on: SW620; assay: Inhibition of cancer cell growth as measured by cell number, SW620; format: cell-based, human; details: Table 8; for IC50: Homo sapiens, SW-620, 48 h;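 on all read-outs here: SW620 was included as a cell line with little or no EGFR or HER2/neu expression, in contrast to receptor-overexpressing lines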
Description: as §1

[6] = tested on: A431; assay: Inhibition of cancer cell growth as measured by cell number, A431; format: cell-based, human; details: Homo sapiens, A-431, 48 h, Table 8;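 further: human A431 line, picked because it overexpresses epidermal growth factor receptor (EGFR)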
Description: as §1

[7] = SK-BR-3, 48 h, read-out: IC50 SKBR3, cell number, Sulforhodamine B, 48 hours exposure
[8] = cell number, Sulforhodamine B, 48 hours exposure
[9] = 80 mg/kg/dose IP on days 1,5 and 9
[10] = 80 mg/kg/dose PO on days 1 through 10
[11] = cell number, Sulforhodamine B, 48 hours exposure, read-out: IC50 A431
[12] = SK-BR-3, cell number, Sulforhodamine B, 48 hours exposure, read-out: IC50 SKBR3
[13] = cell number, Sulforhodamine B, 48 hours exposure, read-out: IC50 SW620
[14] = read-out: IC50 SW620, cell number, Sulforhodamine B, 48 hours exposure

Row | IC50 [3] | IC50 [4] | Compound | also measured
1 | – | 0.08 µM | C=CC(=O)Nc1ccc2ncc(C#N)c(Nc3cccc(F)c3)c2c1 [Example 88, N-[3-Cyano-4-(3-fluorophenylamino)quinolin-6-yl]acrylamide] | –
2 | – | 0.1 µM | CCOc1cc2ncc(C#N)c(Nc3ccc(F)c(Cl)c3)c2cc1OCC [Example 256, 4-(3-Chloro-4-fluorophenylamino)-6,7-diethoxy-3-quinolinecarbonitrile] | –
3 | 3 µM | – | CCOc1cc2ncc(C#N)c(NCc3ccc(Cl)c(Cl)c3)c2cc1OCC [Example 64, 4-(3.4-Dichlorophenylmethylamino)-6,7-diethoxy-3-quinolinecarbonitrile] | IC50 SKBR3 [1, 8]: 1.965 mg/L (≈ 4.72 µM); IC50 SW620 [5, 8]: 1.603 mg/L (≈ 3.85 µM)
4 | – | 0.01 µM | N#Cc1cnc2ccc(NC(=O)/C=C\Cl)cc2c1Nc1cccc(Br)c1 [Example 327, N-[4-(3-Bromo-phenylamino)-3-cyano-quinolin-6-yl]-3-chloro-(Z)-acrylamide] | –
5 | 50 µM | – | COc1cccc(Nc2c(C#N)cnc3ccc(N(C)C)cc23)c1.Cl [Example 396, 6-Dimethylamino-4-(3-methoxyphenylamino)quinoline-3-carbonitrile Hydrochloride] | IC50 [6, 11]: 0.3 mg/L; IC50 [1, 12]: 0.2 mg/L; IC50 [5, 13]: 2.7 mg/L
6 | > 100 µM | 0.007 µM | C=CC(=O)Nc1ccc2ncc(C#N)c(Nc3ccc(Br)c(Br)c3)c2c1 [Example 380, N-[3-Cyano-4-(3,4-dibromophenylamino)quinolin-6-yl]acrylamide] | –
7 | > 100 µM | 0.4 µM | COc1cc2c(Nc3cccc(Br)c3)c(C#N)cnc2cc1OCCCN1CCOCC1 [Example 313, 4-(3-Bromo-phenylamino)-6-methoxy-7-(3-morpholin-4-yl-propoxy)-quinoline-3-carbonitrile] | –
8 | > 100 µM | – | CCOc1cc2ncc(C#N)c(NCc3cccc(Br)c3)c2cc1OCC [Example 61, 4-(3-Bromophenylmethylamino)-6,7-diethoxy-3-quinolinecarbonitrile] | IC50 [6, 11]: 0.341 mg/L (≈ 0.8 µM); IC50 [1, 12]: 1.09 mg/L (≈ 2.57 µM); IC50 [5, 13]: 1.07 mg/L (≈ 2.5 µM)
9 | – | 0.01 µM | C=CC(=O)Nc1ccc2ncc(C#N)c(Nc3cccc(Cl)c3)c2c1 [Example 135, N-4-[(3-Chlorophenyl)amino]-3-cyano-6-guinolinyl-2-propenarnide] | –
10 | 15 µM | – | COc1cc2ncc(C#N)c(Nc3cc(O)c(Cl)cc3F)c2cc1OCCCN1CCOCC1 [Example 323, 4-(4-Chloro-2-fluoro-5-hydroxy-phenylamino)-7-methoxy-6-(3-morpholin-4-yl)-propoxyl-quinoline-3-carbonitrile] | –
11 | > 100 µM | – | COc1cc2ncc(C#N)c(Nc3cccc(N=[N+]=[N-])c3)c2cc1OC [Example 359, 4-(3-Azido-phenylamino)-6,7-dimethoxy-quinoline-3-carbonitrile] | –
12 | > 100 µM | – | CN(C)c1ccc(Nc2c(C#N)cnc3ccc([N+](=O)[O-])cc23)cc1 [Example 387, 4-(4-Dimethylaminophenylamino)-6-nitroquinoline-3-carbonitrile] | –
13 | 20 µM | – | COc1cc2ncc(C#N)c(Nc3ccc(O)cc3O)c2cc1OC [Example 300, 4-(2,4-Dihydroxy-phenylamino)-6,7-dimethoxy-quinoline-3-carbonitrile] | –
14 | < 1 µM | – | COc1cc2ncc(C#N)c(Nc3ccc(SC)cc3)c2cc1OC [Example 298, 6.7-Dimethoxy-4-(4-methylsulfanyl-phenylamino)-quinoline-3-carbonitrile] | –
15 | > 100 µM | – | COCc1cc2ncc(C#N)c(Nc3cccc(Br)c3)c2cc1COC [Example 325, 4-(3-Bromophenylamino)-6,7-di-methoxymethyl-3-quinolinecarbonitrile] | –
16 | > 100 µM | – | COc1cc2ncc(C#N)c(Nc3ccc(CCO)cc3)c2cc1OC [Example 299, 4-[4-(2-Hydroxy-ethyl)-phenylamino]-6,7-dimethoxy-quinoline-3-carbonitrile] | –
17 | – | 0.5 µM | COc1cc2ncc(C#N)c(Nc3ccc(Cl)cc3F)c2cc1N [Example 360, 6-Amino-4[(4-Chloro-2-fluorophenyl)amino]-7-methoxy-3-quinolinecarbonitrile] | –
18 | 4 µM | – | COc1cc2ncc(C#N)c(Nc3cccc(N(C)C)c3)c2cc1OC [Example 366, 4-(3-Dimethylamino-phenylamino)-6,7-dimethoxy-quinoline-3-carbonitrile] | –
19 | – | 0.1 µM | N#Cc1cnc2ccc(N)cc2c1Nc1ccc(Br)cc1 [Example 152, 6-Amino-4-[(4-bromophenyl)amino]-3-quinolinecarbonitrile] | –

The next lines start with the compound.

Row | Compound | IC50 [3] | IC50 [4] | also measured
20 | CCOc1cc2ncc(C#N)c(Nc3cccc(Br)c3)c2cc1NC(=O)C=CCN(C)C [Example 216, 4-Dimethylamino-but-2-enoic acid [4-(3-bromo-phenylamino)-3-cyano-7-ethoxy-quinolin-6-yl]-amide] | – | – | IC50 [1, 7]: 0.012 mg/L (≈ 0.0243 µM); IC50 SKBR3 [1, 8]: 0.015 mg/L (≈ 0.0303 µM); %T/C Day 7 [2, 9]: 14%; %T/C Day 14 [2, 9]: 12%; %T/C Day 21 [2, 9]: 17%; %T/C Day 28 [2, 9]: 19%; S/T = No. Survivors/No. Treated [2, 9]: 5/5; %T/C Day 7 [2, 10]: 6%; %T/C Day 14 [2, 10]: 6%; %T/C Day 21 [2, 10]: 12%; %T/C Day 28 [2, 10]: 21%; S/T = No. Survivors/No. Treated [2, 10]: 5/5
21 | CC#CC(=O)Nc1ccc2ncc(C#N)c(Nc3cccc(OC)c3)c2c1 [Example 139, N-{3-Cyano-4-[(3-methoxyphenyl)amino]-6-quinolinyl}-2-butynamide] | 35 µM | 0.5 µM | –
22 | C=CC(=O)Nc1cc(CN(C)C)c2ncc(C#N)c(Nc3cccc(Br)c3)c2c1 [Example 111, N-{4-[(3-Bromophenyl)amino]-3-cyano-8-dimethylaminomethyl-6-quinolinyl}-2-propenamide] | – | – | IC50 [6, 11]: 3.05 mg/L (≈ 6.76 µM); IC50 [1, 12]: 3.32 mg/L (≈ 7.38 µM); IC50 [5, 13]: 2.02 mg/L (≈ 4.48 µM)
23 | C=C(CN1CCOCC1)C(=O)Nc1ccc2ncc(C#N)c(Nc3ccc(F)c(Cl)c3)c2c1 [Example 148, N-{4-[(3-chloro-4-fluorophenyl)amino]-3-cyano-6-quinolinyl}-2-morpholin-4-ylmethyl-2-propenamide] | – | – | IC50 [1, 7]: 0.043 mg/L (≈ 0.0923 µM); IC50 [5, 14]: 0.26 mg/L (≈ 0.558 µM)
24 | COc1cc2ncc(C#N)c(Nc3cccc(CS)c3)c2cc1OC [Example 270] | > 100 µM | 0.01 µM | –
25 | CCOc1cc2ncc(C#N)c(NCc3ccccc3)c2cc1OCC [Example 62, 4-(3-Phenylmethylamino)-6,7-diethoxy-3-quinolinecarbonitrile] | – | – | IC50 SKBR3 [1, 8]: 0.3 mg/L (≈ 0.864 µM); IC50 SW620 [5, 8]: 0.3 mg/L (≈ 0.864 µM)
26 | CC(=O)Nc1cc(CN(C)C)c2ncc(C#N)c(Nc3cccc(Br)c3)c2c1 [Example 112, N-{4-[(3-Bromophenyl)amino]-3-cyano-8-dimethylaminomethyl-6-quinolinyl} acetamide] | > 100 µM | – | IC50 ([6]; read-out: IC50 A431, cell number, Sulforhodamine B, 48 hours exposure): > 5 mg/L; IC50 [1, 7]: > 5 mg/L; IC50 [5, 14]: > 5 mg/L
27 | N#Cc1cnc2ccc(N)cc2c1Nc1cccc(Cl)c1 [Example 136, 6-Amino-4-[(3-chlorophenyl)amino]-3-quinolinecarbonitrile] | 70 µM and > 100 µM | – | –
28 | CCCCOc1cc2ncc(C#N)c(Nc3cccc(Br)c3)c2cc1OCCCC [Example 305, 4-(3-Bromophenylamino)-6,7-di-n-butoxy-3-quinolinecarbonitrile] | > 100 µM | – | –
29 | CC#CC(=O)Nc1ccc2ncc(C#N)c(Nc3ccc(N(C)C)cc3)c2c1 [Example 394, But-2-ynoic Acid [3-Cyano-4-(4-dimethylaminophenylamino)quinolin-6-yl]amide] | > 100 µM | – | –
30 | C=C(CN1CCOCC1)C(=O)Nc1ccc2ncc(C#N)c(Nc3cccc(Br)c3)c2c1 [Example 171, N-{4-[(3-Bromophenyl)amino]-3-cyano-6-quinolinyl}-2-morpholin-4-ylmethyl-2-propenamide] | – | 0.0065 µM | –
31 | Cc1cccc(Nc2c(C#N)cnc3ccc([N+](=O)[O-])cc23)c1 [Example 134] | > 100 µM and 80 µM | – | –
32 | COc1cc(NC(=O)C=CCN(C)C)cc2c(Nc3cccc(Br)c3)c(C#N)cnc12 [Example 224] | – | 1 µM | –
33 | COc1cc2ncc(C#N)c(Nc3cccc(CCl)c3)c2cc1OC [Example 268, 4-[3-(Chloromethyl)phenylamino]-6,7-dimethoxy-3-quinolinecarbonitrile] | 15 µM | – | –
